Active and inactive are the calls of the source. No cut-off for these calls is given here.
Key:
[1] = target: T1, Protein cereblon/NAD-dependent protein deacylase sirtuin-6 (Homo sapiens, UniProt Q8N6T7+Q96SW2); experiment: PROTAC activity at CRBN/SIRT6 in human SK-HEP1 cells assessed as induction of SIRT6 degradation at 2.5 uM incubated for 36 hrs by proteomic analysis; type: cell-based
[2] = Toxicity in BALB/c nude mouse xenografted with human SK-HEP1 cells assessed as pathological damage in kidney at 10 mg/kg treated for 28 to 30 days by H and E staining based analysis; type: organism-based; conditions: in vivo, time 28-30 day
[3] = Toxicity in BALB/c nude mouse xenografted with human SK-HEP1 cells assessed as histopathological abnormalities in heart at 10 mg/kg treated for 28 to 30 days under irradiation (3 Gy) by H and E staining based analysis; type: organism-based; conditions: in vivo, time 28-30 day
SK-HEP1 [4] = experiment: Effect of SIRT6 mRNA expression in human SK-HEP1 cells at 2.5 uM incubated for 36 hrs by RNA sequencing analysis; type: functional, cell-based
[5] = Toxicity in BALB/c nude mouse xenografted with human SK-HEP1 cells assessed as pathological damage in liver at 10 mg/kg treated for 28 to 30 days by H and E staining based analysis; type: organism-based; conditions: in vivo, time 28-30 day
[6] = target: T1, Protein cereblon/NAD-dependent protein deacylase sirtuin-6; experiment: PROTAC activity at CRBN/SIRT6 in human SK-HEP1 cells assessed as disruption of CHD4 recruitment to DSB sites at 2.5 uM incubated for 36 hrs followed by VP16 treatment for 4 hrs by Western blot analysis; type: cell-based; conditions: time 40.0 hrs
SK-HEP1 [7] = experiment: Effect on SIRT1 expression in human SK-HEP1 cells at 0.002 to 1 uM incubated for 36 hrs by Western blot analysis; type: functional, cell-based; conditions: dose 0.002-1 µM
[8] = target: T1, Protein cereblon/NAD-dependent protein deacylase sirtuin-6; experiment: PROTAC activity at CRBN/SIRT6 in human SK-HEP1 cells assessed as induction of SIRT6 degradation at 1 uM pretreated for 36 hrs followed by compound washout measured for 36 hrs by Western blot analysis; type: cell-based
SK-HEP1 [9] = experiment: Effect on H3K56Ac expression in human SK-HEP1 cells at 0.002 to 1 uM incubated for 36 hrs by Western blot analysis; type: functional, cell-based; conditions: dose 0.002-1 µM
[10] = target: T1, Protein cereblon/NAD-dependent protein deacylase sirtuin-6; experiment: PROTAC activity at CRBN/SIRT6 in human SK-HEP1 cells assessed as induction of SIRT6 degradation at 2 to 3 uM incubated for 36 hrs by Western blot analysis; type: cell-based; conditions: dose 2-3 µM
[11] = Toxicity in BALB/c nude mouse xenografted with human SK-HEP1 cells assessed as pathological damage in liver at 10 mg/kg treated for 28 to 30 days in presence of sorafenib by H and E staining based analysis; type: organism-based; conditions: in vivo, time 28-30 day
[12] = target: T1, Protein cereblon/NAD-dependent protein deacylase sirtuin-6; experiment: PROTAC activity at CRBN/SIRT6 in human SK-HEP1 cells assessed as induction of SIRT6 degradation at 2.5 uM incubated for 36 hrs by Western blot analysis; type: cell-based
SK-HEP1 [13] = experiment: Downregulation of FBXO44 expression in human SK-HEP1 cells at 2.5 uM incubated for 36 hrs; type: functional, cell-based
SK-HEP1 [14] = experiment: Effect of SIRT6 mRNA expression in human SK-HEP1 cells at 2.5 uM incubated for 36 hrs by RT-qPCR analysis; type: functional, cell-based
SK-HEP1 [15] = experiment: Effect of CSTB mRNA expression in human SK-HEP1 cells at 2.5 uM incubated for 36 hrs by RNA sequencing analysis; type: functional, cell-based
[16] = target: T1, Protein cereblon/NAD-dependent protein deacylase sirtuin-6; experiment: PROTAC activity at CRBN/SIRT6 in human Huh-7 cells assessed as induction of SIRT6 degradation upto 10 uM incubated for 36 hrs by Western blot analysis relative to control; type: cell-based
SK-HEP1 [17] = experiment: Synergistic antitumor activity against human SK-HEP1 cells xenografted in BALB/c nude mouse at 10 mg/kg treated for 28 to 30 days in presence of sorafenib relative to control; type: functional; conditions: time 28-30 day
[18] = Toxicity in BALB/c nude mouse xenografted with human SK-HEP1 cells assessed as pathological damage in lungs at 10 mg/kg treated for 28 to 30 days under irradiation (3 Gy) by H and E staining based analysis; type: organism-based; conditions: in vivo, time 28-30 day
SK-HEP1 [19] = experiment: Downregulation of CCPG1 expression in human SK-HEP1 cells at 2.5 uM incubated for 36 hrs in presence of MLN4924; type: functional, cell-based
SK-HEP1 [20] = experiment: Effect on SIRT7 expression in human SK-HEP1 cells at 0.002 to 1 uM incubated for 36 hrs by Western blot analysis; type: functional, cell-based; conditions: dose 0.002-1 µM
[21] = target: T1, Protein cereblon/NAD-dependent protein deacylase sirtuin-6; experiment: PROTAC activity at CRBN/SIRT6 in human SK-HEP1 cells assessed as increase in H3K9Ac level incubated for 36 hrs by Western blot analysis; type: cell-based; conditions: dose 0.002-1 µM
[22] = target: T1, Protein cereblon/NAD-dependent protein deacylase sirtuin-6; experiment: PROTAC activity at CRBN/SIRT6 in human SK-HEP1 cells assessed as impairment in CHD4 foci formation by immunofluorescence based analysis; type: cell-based
SK-HEP1 [23] = experiment: Effect of TFRC mRNA expression in human SK-HEP1 cells at 2.5 uM incubated for 36 hrs by RNA sequencing analysis; type: functional, cell-based
SK-HEP1 [24] = experiment: Downregulation of NAIF1 expression in human SK-HEP1 cells at 2.5 uM incubated for 36 hrs in presence of MG132; type: functional, cell-based
SK-HEP1 [25] = experiment: Induction of apoptosis in human SK-HEP1 cells assessed as rate of apoptotic cells at 10 uM incubated for 72 hrs by Annexin V-FITC/PI staining based flow cytometry relative to control; type: functional
[26] = Toxicity in BALB/c nude mouse xenografted with human SK-HEP1 cells assessed as histopathological abnormalities in heart at 10 mg/kg treated for 28 to 30 days by H and E staining based analysis; type: organism-based; conditions: in vivo, time 28-30 day
[27] = Toxicity in BALB/c nude mouse xenografted with human SK-HEP1 cells assessed as pathological damage in heart at 10 mg/kg treated for 28 to 30 days in presence of sorafenib by H and E staining based analysis; type: organism-based; conditions: in vivo, time 28-30 day
[28] = target: T1, Protein cereblon/NAD-dependent protein deacylase sirtuin-6; experiment: In vivo PROTAC activity of CRBN/SIRT6 in human SK-HEP1 cells xenografted in BALB/c nude mouse assessed as induction of SIRT6 degradation at 10 mg/kg treated for 28 to 30 days under irradiation (3 Gy); type: functional, organism-based; conditions: time 28-30 day
[29] = target: T1, Protein cereblon/NAD-dependent protein deacylase sirtuin-6; experiment: PROTAC activity at CRBN/SIRT6 in human SK-HEP1 cells assessed as disruption of CHD4 recruitment to DSB sites at 2.5 uM incubated for 36 hrs followed by irradiation (10 Gy) treatment for 4 hrs by Western blot analysis; type: cell-based; conditions: time 40.0 hrs
[30] = Toxicity in BALB/c nude mouse xenografted with human SK-HEP1 cells assessed as histopathological abnormalities in lungs at 10 mg/kg treated for 28 to 30 days in presence of sorafenib by H and E staining based analysis; type: organism-based; conditions: in vivo, time 28-30 day
SK-HEP1 [31] = experiment: Inhibition of colony formation in human SK-HEP1 cells at 5 uM incubated for 10 to 14 days with replacement of medium containing compounds on every 3 days in presence of sorafenib by crystal violet staining based analysis; type: functional, cell-based; conditions: time 10-14 day
[32] = target: T1, Protein cereblon/NAD-dependent protein deacylase sirtuin-6; experiment: PROTAC activity at CRBN/SIRT6 in human SK-HEP1 cells assessed as disruption of CHD4 recruitment to DSB sites at 2.5 uM incubated for 36 hrs followed by sorafenib treatment for 4 hrs by Western blot analysis; type: cell-based; conditions: time 40.0 hrs

T1 sequence (Q8N6T7 2-355 limits assumed): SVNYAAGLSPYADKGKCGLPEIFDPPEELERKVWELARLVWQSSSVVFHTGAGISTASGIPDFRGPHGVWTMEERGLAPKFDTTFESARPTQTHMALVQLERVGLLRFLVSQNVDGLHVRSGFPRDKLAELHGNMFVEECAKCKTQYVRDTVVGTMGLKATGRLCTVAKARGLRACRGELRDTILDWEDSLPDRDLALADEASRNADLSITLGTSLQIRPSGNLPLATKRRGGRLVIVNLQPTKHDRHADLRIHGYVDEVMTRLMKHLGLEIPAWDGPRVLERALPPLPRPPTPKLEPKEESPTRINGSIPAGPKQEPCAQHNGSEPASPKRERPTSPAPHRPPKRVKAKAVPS
T1 sequence (Q96SW2 whole entry partner): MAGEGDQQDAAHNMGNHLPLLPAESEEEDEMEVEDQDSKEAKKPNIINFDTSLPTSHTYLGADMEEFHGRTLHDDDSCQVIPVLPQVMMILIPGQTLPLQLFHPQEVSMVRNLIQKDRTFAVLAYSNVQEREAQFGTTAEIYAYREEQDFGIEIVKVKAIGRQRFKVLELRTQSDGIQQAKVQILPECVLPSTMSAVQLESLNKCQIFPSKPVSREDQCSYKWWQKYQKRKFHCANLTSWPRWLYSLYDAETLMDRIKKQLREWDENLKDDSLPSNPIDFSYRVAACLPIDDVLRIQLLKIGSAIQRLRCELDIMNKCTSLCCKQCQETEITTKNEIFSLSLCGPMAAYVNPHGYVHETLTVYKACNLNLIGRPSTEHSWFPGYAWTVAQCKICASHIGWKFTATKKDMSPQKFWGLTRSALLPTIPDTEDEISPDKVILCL

- Activity [1]: Active
- Activity [6]: Active
- Activity [10]: Active
- Activity [12]: Active
- Emax [16]: 91.8%
- Activity [21]: Dose-dependent-effect
- Activity [22]: Active
- Activity [28]: Active
- Activity [29]: Active
- Activity [32]: Active
Compound: Nc1cc(N2CCN(CC3CCN(c4cc5c(cc4F)C(=O)N(C4CCC(=O)NC4=O)C5=O)CC3)CC2)ccc1[N+](=O)[O-] (stereo not drawn)
- Activity [2]: Non-toxic
- Activity [3]: Non-toxic
- Activity (SK-HEP1 [4]): No effect; The Mrna Level Did Not Markedly Change
- Activity [5]: Non-toxic
- Activity (SK-HEP1 [7]): No effect
- Activity [8]: Not active; Sirt6 Level Slowly Recovered Within 24 Hrs After Treatment
- Activity (SK-HEP1 [9]): No effect
- Activity [11]: Non-toxic
- Activity (SK-HEP1 [13]): Active
- Activity (SK-HEP1 [14]): Active; Only Slight Downregulation Observed
- Activity (SK-HEP1 [15]): Active
- T/C (SK-HEP1 [17]): 18.2%
- Activity [18]: Non-toxic
- Activity (SK-HEP1 [19]): inactive
- Activity (SK-HEP1 [20]): No effect
- Activity (SK-HEP1 [23]): Active
- Activity (SK-HEP1 [24]): inactive
- Activity (SK-HEP1 [25]): Active
- Activity (SK-HEP1 [25]; record 2): <=60%
- Activity [26]: Non-toxic
- Activity [27]: Non-toxic
- Activity [30]: Non-toxic
- inhibition (SK-HEP1 [31]): Not active; Exhibited Weaker Inhibition
